# In ChEMBL document CHEMBL1158000, “Geniculol, a new biologically active diterpene from the endophytic fungus geniculosporium sp.1” (1999):
# Assays:
# [Chlorella] fusca [1] = Antialgal activity against Chlorella fusca at 50 ug by agar diffusion test; format: functional; settings: Scenedesmus fuscus; read-out: IZ
# [Chlorella] fusca [2] = Reduction of photosynthetic activity in green alga Chlorella fusca assessed as production of oxygen per hour at 0.2 mg/mL; format: functional, Scenedesmus fuscus; set-up: scale not given: the % may be the effect or the level left
Compound,zone of inhibition at 50 µg/disc ([Chlorella] fusca [1]) [mm],Activity ([Chlorella] fusca [2]) [%]
C[C@H]1C/C=C/[C@H]2[C@@H]3O[C@]3(C)[C@@H](C)[C@H]3[C@H](Cc4ccccc4)NC(=O)[C@]32OC(=O)/C=C/[C@@H](O)CCC1 [CYTOCHALASIN F],1,94.1
C[C@]12CCC(=O)O[C@H]1C1=C[C@H]3OC(=O)[C@@]4(C)CCC[C@@](C)([C@@H]34)[C@]1(O)[C@H]2O [GENICULOL],2,–
